Experiments:
Assay type in all cases: in vivo
[1] = tested on: mustard, wild (wild mustard, Sinapis arvensis); experiment: Test D pre-/postemergence: mustard, wild
Outline: (§1)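 Species were sown in silt loam and sprayed preemergence, or grown in peat/vermiculite medium and sprayed postemergence at the 1- to 4-leaf stage (2–18 cm), with compounds in a surfactant-containing solvent. Injury was visually rated against untreated controls after 14–21 days, on a 0 (no effect) to 100 (complete control) scale.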

[2] = tested on: barley (winter barley, Hordeum vulgare); experiment: Test C postemergence: barley
Outline: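 Crop and weed plants were grown in peat-vermiculite medium and treated postemergence at the 1- to 4-leaf stage (2-18 cm tall). After 13-15 days in a greenhouse, each species was rated visually against untreated controls on a 0-100 scale (0 no effect, 100 complete control).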

[3] = tested on: foxtail, green (green foxtail, Setaria viridis); experiment: Test D pre-/postemergence: foxtail, green
Outline: as §1

[4] = tested on: wheat, spring (spring wheat, Triticum aestivum); experiment: Test D pre-/postemergence: wheat, spring
Outline: as §1

[5] = tested on: pigweed (Amaranthus retroflexus); experiment: Test D pre-/postemergence: pigweed
Outline: as §1

[6] = tested on: sedge, umbrella (small-flower umbrella sedge Cyperus difformis); experiment: Test B flooded paddy: sedge, umbrella; conditions: Flood; 250 g ai/ha; applied to paddy water at 2-leaf stage; visually evaluated after 13 to 15 days
Outline: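 Plants were grown to the 2-leaf stage and pots flooded to 3 cm above soil. Compounds were applied directly into the paddy water, with depth kept for the test. After 13–15 days in greenhouse, response was rated visually against controls on a 0 (no effect) to 100 (complete control) scale.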

[7] = tested on: Russian thistle (Salsola iberica); experiment: Test D pre-/postemergence: Russian thistle
Outline: as §1

[8] = tested on: ryegrass, Italian (Italian ryegrass, Lolium multiflorum); experiment: Test D pre-/postemergence: ryegrass, Italian
Outline: as §1

[9] = Postemergence, 31 g ai/ha, scale 0 to 100 (0 no effect, 100 complete control)
[10] = Postemergence, 62 g ai/ha, scale 0 to 100 (0 no effect, 100 complete control)
[11] = Postemergence, 125 g ai/ha, scale 0 to 100, 0 no effect, 100 complete control
[12] = Postemergence, 250 g ai/ha, scale 0 to 100 (0 no effect, 100 complete control)
[13] = Postemergence, 16 g ai/ha, scale 0 to 100
[14] = 31 g ai/ha, scale 0 to 100 (0 no effect, 100 complete control)
[15] = 62 g ai/ha, scale 0 to 100 (0 no effect, 100 complete control)
[16] = 125 g ai/ha, scale 0 to 100, 0 no effect, 100 complete control
[17] = Postemergence, 8 g ai/ha, scale 0 to 100
[18] = Preemergence, 16 g ai/ha, scale 0 to 100 (0 no effect, 100 complete control)
[19] = Preemergence, 31 g ai/ha, scale 0 to 100 (0 no effect, 100 complete control)
[20] = Preemergence, 62 g ai/ha, scale 0 to 100
[21] = Preemergence, 125 g ai/ha, scale 0 to 100
[22] = Preemergence, 250 g ai/ha, scale 0 to 100

## Cc1nn(-c2ccnc(C(F)(F)F)c2)nc1Cc1ccnc(C(F)(F)F)c1 [Compound 137]
[1]; [9]
  Plant response rating: Mustard, Wild: 60
[1]; [10]
  Plant response rating: Mustard, Wild: 80
[1]; [11]
  Plant response rating: Mustard, Wild: 95
[1]; [12]
  Plant response rating: Mustard, Wild: 100
[1]; [13]
  Plant response rating, Mustard, Wild: 50
[2]; [14]
  Plant response rating, Barley: 10
[2]; [15]
  Plant response rating, Barley: 10
[2]; [16]
  Plant response rating, Barley: 30
[2]; 250 g ai/ha, scale 0 to 100
  Plant response rating, Barley: 35
[3]; [9]
  Plant response rating: Foxtail, Green: 50
[3]; [10]
  Plant response rating: Foxtail, Green: 70
[3]; [11]
  Plant response rating: Foxtail, Green: 80
[3]; [12]
  Plant response rating: Foxtail, Green: 95
[3]; [13]
  Plant response rating, Foxtail, Green: 40
[4]; [9]
  Plant response rating: Wheat, Spring: 5
[4]; [10]
  Plant response rating: Wheat, Spring: 10
[4]; [11]
  Plant response rating: Wheat, Spring: 20
[4]; [12]
  Plant response rating: Wheat, Spring: 25
[4]; [13]
  Plant response rating, Wheat, Spring: 0
[5]; [9]
  Plant response rating: Pigweed: 90
[5]; [10]
  Plant response rating: Pigweed: 95
[5]; [11]
  Plant response rating: Pigweed: 100
[5]; [12]
  Plant response rating: Pigweed: 100
[5]; [13]
  Plant response rating, Pigweed: 90
[6]
  Plant response rating, Sedge, Umbrella (0 to 100 scale, 0 is no effect, 100 is complete control): 70
[7]; [10]
  Plant response rating: Russian Thistle: 85
[7]; [11]
  Plant response rating: Russian Thistle: 85
[7]; [12]
  Plant response rating: Russian Thistle: 90
[7]; [13]
  Plant response rating, Russian Thistle: 30
[8]; [9]
  Plant response rating: Ryegrass, Italian: 10
[8]; [10]
  Plant response rating: Ryegrass, Italian: 25
[8]; [11]
  Plant response rating: Ryegrass, Italian: 35
[8]; [12]
  Plant response rating: Ryegrass, Italian: 40
[8]; [13]
  Plant response rating, Ryegrass, Italian: 0

## Cc1nn(-c2ccc(F)c(F)c2)nc1Oc1ccnc(C(F)(F)F)c1 [Compound 145]
[1]; [9]
  Plant response rating: Mustard, Wild: 75
[1]; [10]
  Plant response rating: Mustard, Wild: 90
[1]; [11]
  Plant response rating: Mustard, Wild: 100
[1]; [17]
  Plant response rating, Mustard, Wild: 25
[1]; [13]
  Plant response rating, Mustard, Wild: 70
[2]; [14]
  Plant response rating, Barley: 15
[2]; [15]
  Plant response rating, Barley: 20
[2]; [16]
  Plant response rating, Barley: 35
[2]; 250 g ai/ha, scale 0 to 100
  Plant response rating, Barley: 45
[3]; [9]
  Plant response rating: Foxtail, Green: 60
[3]; [10]
  Plant response rating: Foxtail, Green: 100
[3]; [11]
  Plant response rating: Foxtail, Green: 100
[3]; [17]
  Plant response rating, Foxtail, Green: 5
[3]; [13]
  Plant response rating, Foxtail, Green: 5
[4]; [9]
  Plant response rating: Wheat, Spring: 10
[4]; [10]
  Plant response rating: Wheat, Spring: 20
[4]; [11]
  Plant response rating: Wheat, Spring: 25
[4]; [17]
  Plant response rating, Wheat, Spring: 5
[4]; [13]
  Plant response rating, Wheat, Spring: 5
[5]; [9]
  Plant response rating: Pigweed: 95
[5]; [10]
  Plant response rating: Pigweed: 100
[5]; [11]
  Plant response rating: Pigweed: 100
[5]; [17]
  Plant response rating, Pigweed: 20
[5]; [13]
  Plant response rating, Pigweed: 70
[6]
  Plant response rating, Sedge, Umbrella (0 to 100 scale, 0 is no effect, 100 is complete control): 85
[7]; [9]
  Plant response rating: Russian Thistle: 95
[7]; [10]
  Plant response rating: Russian Thistle: 98
[7]; [11]
  Plant response rating: Russian Thistle: 100
[7]; [17]
  Plant response rating, Russian Thistle: 10
[7]; [13]
  Plant response rating, Russian Thistle: 40
[8]; [9]
  Plant response rating: Ryegrass, Italian: 10
[8]; [10]
  Plant response rating: Ryegrass, Italian: 15
[8]; [11]
  Plant response rating: Ryegrass, Italian: 30
[8]; [17]
  Plant response rating, Ryegrass, Italian: 0
[8]; [13]
  Plant response rating, Ryegrass, Italian: 0

## CCOc1nn(-c2ccc(F)cc2)nc1Cc1ccnc(C(F)F)c1 [Compound 195]
[1]; [9]
  Plant response rating: Mustard, Wild: 80
[1]; [10]
  Plant response rating: Mustard, Wild: 80
[1]; [11]
  Plant response rating: Mustard, Wild: 95
[1]; [12]
  Plant response rating: Mustard, Wild: 100
[1]; [13]
  Plant response rating, Mustard, Wild: 60
[1]; [18]
  Plant response rating, Mustard, Wild: 0
[1]; [19]
  Plant response rating, Mustard, Wild: 10
[1]; [20]
  Plant response rating, Mustard, Wild: 40
[1]; [21]
  Plant response rating, Mustard, Wild: 100
[1]; [22]
  Plant response rating, Mustard, Wild: 100
[2]; [14]
  Plant response rating, Barley: 15
[2]; [15]
  Plant response rating, Barley: 20
[2]; [16]
  Plant response rating, Barley: 35
[2]; 250 g ai/ha, scale 0 to 100
  Plant response rating, Barley: 35
[3]; [9]
  Plant response rating: Foxtail, Green: 50
[3]; [10]
  Plant response rating: Foxtail, Green: 75
[3]; [11]
  Plant response rating: Foxtail, Green: 100
[3]; [12]
  Plant response rating: Foxtail, Green: 100
[3]; [13]
  Plant response rating, Foxtail, Green: 30
[3]; [18]
  Plant response rating, Foxtail, Green: 15
[3]; [19]
  Plant response rating, Foxtail, Green: 90
[3]; [20]
  Plant response rating, Foxtail, Green: 100
[3]; [21]
  Plant response rating, Foxtail, Green: 100
[3]; [22]
  Plant response rating, Foxtail, Green: 100
[4]; [9]
  Plant response rating: Wheat, Spring: 10
[4]; [10]
  Plant response rating: Wheat, Spring: 20
[4]; [11]
  Plant response rating: Wheat, Spring: 25
[4]; [12]
  Plant response rating: Wheat, Spring: 35
[4]; [13]
  Plant response rating, Wheat, Spring: 5
[4]; [18]
  Plant response rating, Wheat, Spring: 0
[4]; [19]
  Plant response rating, Wheat, Spring: 0
[4]; [20]
  Plant response rating, Wheat, Spring: 0
[4]; [21]
  Plant response rating, Wheat, Spring: 0
[4]; [22]
  Plant response rating, Wheat, Spring: 0
[5]; [9]
  Plant response rating: Pigweed: 65
[5]; [10]
  Plant response rating: Pigweed: 75
[5]; [11]
  Plant response rating: Pigweed: 80
[5]; [12]
  Plant response rating: Pigweed: 95
[5]; [13]
  Plant response rating, Pigweed: 60
[5]; [18]
  Plant response rating, Pigweed: 60
[5]; [19]
  Plant response rating, Pigweed: 60
[5]; [20]
  Plant response rating, Pigweed: 60
[5]; [21]
  Plant response rating, Pigweed: 100
[5]; [22]
  Plant response rating, Pigweed: 95
[6]
  Plant response rating, Sedge, Umbrella (0 to 100 scale, 0 is no effect, 100 is complete control): 100
[7]; [9]
  Plant response rating: Russian Thistle: 40
[7]; [10]
  Plant response rating: Russian Thistle: 80
[7]; [11]
  Plant response rating: Russian Thistle: 85
[7]; [12]
  Plant response rating: Russian Thistle: 100
[7]; [13]
  Plant response rating, Russian Thistle: 15
[7]; [18]
  Plant response rating, Russian Thistle: 0
[7]; [19]
  Plant response rating, Russian Thistle: 0
[7]; [20]
  Plant response rating, Russian Thistle: 0
[7]; [21]
  Plant response rating, Russian Thistle: 0
[7]; [22]
  Plant response rating, Russian Thistle: 30
[8]; [9]
  Plant response rating: Ryegrass, Italian: 10
[8]; [10]
  Plant response rating: Ryegrass, Italian: 20
[8]; [11]
  Plant response rating: Ryegrass, Italian: 20
[8]; [12]
  Plant response rating: Ryegrass, Italian: 25
[8]; [13]
  Plant response rating, Ryegrass, Italian: 5
[8]; [18]
  Plant response rating, Ryegrass, Italian: 0
[8]; [19]
  Plant response rating, Ryegrass, Italian: 0
[8]; [20]
  Plant response rating, Ryegrass, Italian: 0
[8]; [21]
  Plant response rating, Ryegrass, Italian: 20
[8]; [22]
  Plant response rating, Ryegrass, Italian: 60

Source: patent US9302999B2, “Substituted triazoles as herbicides” (E. I. DU PONT DE NEMOURS AND COMPANY, priority 2012, dated 2016)
